From US20130142796A1, “TREATMENT FOR ANGIOGENIC DISORDERS” (priority 2011, published 2013)
“Also recorded” adds a separate entry of the source.

What was measured:
[1] = system: patient with active fluid within or under the retina; test: Case studies of Patients 1-8: intravitreal injection, lesion activity followed by OCT and fluorescein angiography; type: in vivo, human; settings: for subretinal fluid: Patient 1, after 21 previous intravitreal injections of either Lucentis or Avastin; for sub-retinal and sub-RPE fluid: Patient 3, after repeated mono-therapy, ranibizumab 11 times or bevacizumab 3 times; for subretinal fluid and cystoid degeneration: despite photodynamic therapy with verteporfin X2, monthly ranibizumab X12, bevacizumab X15
Description: In the following examples, “protocol” treatment means that 0.3 mg of pegaptanib in combination with 0.125 mg of bevacizumab or 0.5 mg of ranibizumab, all in commercially available formulations, were injected intravitreally to a patient, using standard procedures for such injections.
The patient provided written consent following a thorough discussion of relative risks and benefits of the potential use of Macugen® in a combination format with simultaneous administration of intravitreal Avastin®.
Macugen® was first injected intravitreally (0.3 mg in 0.09 cc). Optic nerve perfusion and intraocular pressure were assessed. Upon restoration of adequate perfusion and pressure stabilization, the eye was once again sterilized and a second intravitreal injection of Avastin® (1.25 mg in 0.05 cc) was given. Optic nerve perfusion and intraocular pressure were reassessed, and the patient was scheduled for routine follow-up.

[2] = molecular target: heparin-binding domain (HBD) of VEGF (Homo sapiens, UniProt P15692); settings: Lee et al., FEBS Lett. 2008; cited from earlier work
[3] = Patient 4, drug used in isolation after protocol treatment

Chain of heparin-binding domain (HBD) of VEGF (P15692 137-191 isoform P15692-4 limits assumed): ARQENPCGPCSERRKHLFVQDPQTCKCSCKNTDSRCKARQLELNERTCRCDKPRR

| Molecule | fluid [1, 3] | binding affinity [2] | subretinal fluid [1] | sub-retinal and sub-RPE fluid [1] | fluid ([1]; Patient 6, re-administration of bevacizumab mono-therapy after protocol treatment) | subretinal fluid and cystoid degeneration ([1]; Patient 7) | fluid and vision ([1]; Patient 7, return to bevacizumab alone after protocol treatment) | subretinal fluid on OCT ([1]; Patient 2, after 33 consecutive intravitreal ranibizumab treatments) | fluorescein angiogram, late frames ([1]; Patient 2, before combination therapy, after 33 intravitreal ranibizumab) | cystoid macular edema (CME) ([1]; Patient 4, despite 10 ranibizumab injections) | lesion activity on angiogram and OCT ([1]; Patient 6, after 22 ranibizumab treatments) | disease management ([1]; Patient 6, ranibizumab mono-therapy after disease was acutely managed with protocol treatment) |
| --- | --- | --- | --- | --- | --- | --- | --- | --- | --- | --- | --- | --- |
| pegaptanib | recurrent fluid | high affinity | – | – | – | – | – | – | – | – | – | – |
| bevacizumab | recurrent fluid | – | chronic subretinal fluid | chronic fluid in the sub-retinal and sub-RPE (retinal pigment epithelium) space | recurrent fluid | subretinal fluid (SRF); also recorded: chronic subretinal fluid and cystoid degeneration | relapse of fluid and vision loss | – | – | – | – | – |
| verteporfin | – | – | – | – | – | chronic subretinal fluid and cystoid degeneration | – | – | – | – | – | – |
| ranibizumab (antibody, chains of the INN, looked up, V domains shown, Fab) VH: EVQLVESGGGLVQPGGSLRLSCAASGYDFTHYGMNWVRQAPGKGLEWVGWINTYTGEPTYAADFKRRFTFSLDTSKSTAYLQMNSLRAEDTAVYYCAKYPYYYGTSHWYFDVWGQGTLVTVSS VL: DIQLTQSPSSLSASVGDRVTITCSASQDISNYLNWYQQKPGKAPKVLIYFTSSLHSGVPSRFSGSGSGTDFTLTISSLQPEDFATYYCQQYSTVPWTFGQGTKVEIK | – | – | chronic subretinal fluid | chronic fluid in the sub-retinal and sub-RPE (retinal pigment epithelium) space | – | subretinal fluid (SRF); also recorded: chronic subretinal fluid and cystoid degeneration | – | subretinal fluid (SRF); also recorded: chronic residual subretinal fluid | leakage from the choroidal neovascular membrane (CNVM) | chronic cystoid macular edema (CME) | persistent lesion activity | could be managed with ranibizumab mono-therapy alone |
